Consider five compounds from patent US20250304644A1, “PEPTIDES TRIPLE AGONISTS OF GIP, GLP-1 AND GLP-2” (BAINAN BIOTECH APS, priority 2021, published 2025).

Common to all, as to type: cell-based
The target in test [1] is T1, human GLP-2R (Homo sapiens, UniProt O95838).
T1 construct: host or cells: COS-7
T1 sequence (O95838 1-553): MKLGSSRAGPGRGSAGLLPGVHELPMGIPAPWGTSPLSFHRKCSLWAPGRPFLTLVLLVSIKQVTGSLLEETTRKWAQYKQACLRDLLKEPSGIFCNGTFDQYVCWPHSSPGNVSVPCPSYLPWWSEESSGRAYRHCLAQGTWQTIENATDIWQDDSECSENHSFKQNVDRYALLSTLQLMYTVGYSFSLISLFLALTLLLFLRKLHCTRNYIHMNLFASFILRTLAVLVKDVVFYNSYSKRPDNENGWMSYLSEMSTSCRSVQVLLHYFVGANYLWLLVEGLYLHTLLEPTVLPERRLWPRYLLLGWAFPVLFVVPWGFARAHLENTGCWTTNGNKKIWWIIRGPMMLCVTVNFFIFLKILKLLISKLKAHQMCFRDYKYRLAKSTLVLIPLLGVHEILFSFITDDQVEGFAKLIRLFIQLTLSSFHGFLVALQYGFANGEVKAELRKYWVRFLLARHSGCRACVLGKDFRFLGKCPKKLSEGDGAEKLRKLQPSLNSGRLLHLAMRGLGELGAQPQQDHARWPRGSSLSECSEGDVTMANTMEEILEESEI
Kind of test: cAMP assay (HitHunter) in transiently transfected COS-7 cells expressing human GLP-2R.

Test [2] deals with T2, human SNAP-tagged GIPR (Homo sapiens, UniProt P48546).
T2 construct: host or cells: HEK293A
T2 sequence (P48546 22-466): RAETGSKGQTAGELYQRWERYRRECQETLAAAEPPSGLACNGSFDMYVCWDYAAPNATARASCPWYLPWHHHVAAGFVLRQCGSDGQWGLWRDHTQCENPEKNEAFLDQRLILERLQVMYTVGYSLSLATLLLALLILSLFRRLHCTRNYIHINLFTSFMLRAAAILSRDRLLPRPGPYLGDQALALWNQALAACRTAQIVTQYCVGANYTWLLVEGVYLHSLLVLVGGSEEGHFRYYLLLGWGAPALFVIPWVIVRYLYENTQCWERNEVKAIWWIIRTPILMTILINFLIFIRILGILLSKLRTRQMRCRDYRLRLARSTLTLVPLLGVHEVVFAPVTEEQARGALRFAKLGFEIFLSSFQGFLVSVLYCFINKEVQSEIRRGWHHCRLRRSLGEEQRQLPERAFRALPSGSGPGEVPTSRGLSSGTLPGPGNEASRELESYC
Briefly: Receptor internalization assay, HEK293A cells expressing human SNAP-tagged GIPR. As to conditions: for Relative hGIPR internalization (%): relative to hGIP 1-42 = 100.

Test [3] deals with T3, human GLP-1R (Homo sapiens, UniProt P43220).
T3 construct: host or cells: COS-7
Briefly: cAMP assay (HitHunter) in transiently transfected COS-7 cells expressing human GLP-1R. Background: Cyclic AMP is a second messenger, typically raised through Gs and lowered through Gi signalling.

Test [4] has as its target T4, human GIPR (Homo sapiens, UniProt P48546).
T4 construct: host or cells: COS-7
T4 sequence (P48546 22-466): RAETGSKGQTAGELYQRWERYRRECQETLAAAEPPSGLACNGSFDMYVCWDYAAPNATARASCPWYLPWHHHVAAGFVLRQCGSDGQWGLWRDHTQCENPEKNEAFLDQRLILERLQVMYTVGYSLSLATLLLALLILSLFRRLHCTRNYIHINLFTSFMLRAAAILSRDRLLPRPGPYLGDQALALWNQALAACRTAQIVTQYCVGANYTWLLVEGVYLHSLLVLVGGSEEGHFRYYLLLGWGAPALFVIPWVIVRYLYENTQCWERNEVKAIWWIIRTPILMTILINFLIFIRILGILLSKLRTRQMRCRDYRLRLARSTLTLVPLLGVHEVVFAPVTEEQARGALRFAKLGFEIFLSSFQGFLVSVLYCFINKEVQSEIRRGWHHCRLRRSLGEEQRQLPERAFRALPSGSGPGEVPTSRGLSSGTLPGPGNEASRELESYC
Briefly: cAMP assay (HitHunter) in transiently transfected COS-7 cells expressing human GIPR. To be noted: for EC50: cAMP, COS-7 cells, human GIPR.

Setting [5] is: COS-7, normalized to highest concentration of the endogenous ligand, read-out: Efficacy GLP-2R (Emax).
[6] abbreviates: AUC of sigmoid curves up to 1 μM, 60 minutes at 37° C.
Setting [7] is: COS-7, normalized to highest concentration of the endogenous ligand, read-out: Efficacy GLP-1R (Emax).
Setting [8] is: cAMP, COS-7 cells, human GLP-1R, read-out: EC50 (nM) GLP-1R.
Where [9] appears, read: COS-7, normalized to highest concentration of the endogenous ligand, read-out: Efficacy GIPR (Emax).

Read-outs that look alike come from different tables or passages of the source. *1 amine or outer side, *2 acyl side, *3 side chain or, on linkers, in order; H or OH if unused. Where a SMILES comes first, the peptide text is derived from it. Where no end group is shown, it is not given here. Side-chain parts run from the residue outwards. The star is where a group is joined. C18 diacid = O=C(O)CCCCCCCCCCCCCCCCC(=O)*; γGlu = O=C(O)[C@H](CCC(=O)[*:2])N[*:1]; AEEA = NCCOCCOCC(=O)O

T3 sequence (P43220 24-463): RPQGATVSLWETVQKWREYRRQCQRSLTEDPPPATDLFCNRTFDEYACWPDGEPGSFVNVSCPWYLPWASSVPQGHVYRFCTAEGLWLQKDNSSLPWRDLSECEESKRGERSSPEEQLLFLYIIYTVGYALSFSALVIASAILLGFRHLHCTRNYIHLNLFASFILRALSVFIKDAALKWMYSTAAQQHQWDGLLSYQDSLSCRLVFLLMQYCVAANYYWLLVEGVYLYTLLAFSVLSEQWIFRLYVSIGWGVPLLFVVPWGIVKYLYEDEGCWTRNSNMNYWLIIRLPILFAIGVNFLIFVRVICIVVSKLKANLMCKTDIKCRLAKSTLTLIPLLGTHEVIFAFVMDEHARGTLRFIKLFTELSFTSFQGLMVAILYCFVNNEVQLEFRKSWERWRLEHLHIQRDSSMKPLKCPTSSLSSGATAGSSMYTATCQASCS

With `CC[C@H](C)[C@H](NC(=O)[C@H](Cc1ccccc1)NC(=O)[C@H](CC(=O)O)NC(=O)[C@H](CCCNC(=N)N)NC(=O)[C@H](C)NC(=O)[C@H](C)NC(=O)[C@H](CC(C)C)NC(=O)[C@H](CC(N)=O)NC(=O)[C@H](CC(=O)O)NC(=O)[C@H](CC(C)C)NC(=O)[C@@H](NC(=O)[C@@H](NC(=O)[C@H](CO)NC(=O)[C@H](Cc1ccc(O)cc1)NC(=O)[C@H](CC(=O)O)NC(=O)[C@H](CO)NC(=O)[C@@H](NC(=O)[C@H](Cc1ccccc1)NC(=O)[C@@H](NC(=O)CNC(=O)[C@H](CC(=O)O)NC(=O)[C@H](C)NC(=O)[C@@H](N)Cc1c[nH]cn1)[C@@H](C)O)[C@@H](C)O)[C@@H](C)O)[C@@H](C)CC)C(=O)N[C@@H](CC(N)=O)C(=O)N[C@@H](Cc1c[nH]c2ccccc12)C(=O)N[C@@H](CC(C)C)C(=O)N[C@H](C(=O)N[C@@H](CCC(N)=O)C(=O)N[C@H](C(=O)N[C@@H](CCCCN)C(=O)NCC(=O)N[C@@H](CCCCN)C(=O)N[C@@H](CCCCNC(=O)CC[C@H](NC(=O)CCCCCCCCCCCCCCCCC(=O)O)C(=O)O)C(=O)O)[C@@H](C)O)[C@@H](C)CC` [Compound 19] (H-HADGTFTSDYSTILDNLAARDFINWLIQTKGKK([γGlu-C18 diacid])-OH; N-terminus assumed), the Emax in test [1] (setting [5]) amounted to 94%; in test [3] (setting [7]) it was 106%; in test [4] (setting [9]), 92%. Moreover, the “GLP-2R activation (in words)” value in test [1] (cAMP, fatty acid at C-terminus of 1-33 or 1-34 backbone) is given as “reduction in GLP-2R activation”. The “Absolute hGIPR internalization (AUC)” value in test [2] (setting [6]) was 8.9. In test [2], the “Relative hGIPR internalization (%)” value amounted to 24%. The results for the EC50 in test [3] (setting [8]) and in test [4] were 0.06 nM and 0.631 nM, respectively.

Regarding “H-HADGTFTSDYSTILDKLAARDFINWLIQTKGKKNDWK([AEEA-AEEA-γGlu-C18 diacid])HNITQ-OH [Compound 25]”, the Emax amounted to 117% in test [1] (setting [5]), 116% in test [3] (setting [7]) and 107% in test [4] (setting [9]). Also, the “Absolute hGIPR internalization (AUC)” value in test [2] (setting [6]) worked out at 13.1. The “Relative hGIPR internalization (%)” value in test [2] was determined as 35%. For the same compound, the EC50 was found to be 0.05 nM in test [3] (setting [8]) and 0.398 nM in test [4].

“HADGTFTSDYSTILDKK([AEEA-AEEA-γGlu-C18 diacid])AARDFINWLIQTKGKKNDWKHNITQ [Compound 23]”: the Emax in test [1] (COS-7, read-out: Efficacy GLP-2R (Emax)) stood at 95%; in test [3] (COS-7, read-out: Efficacy GLP-1R (Emax)), 105%; in test [4] (COS-7, read-out: Efficacy GIPR (Emax)), 82%. The “Absolute hGIPR internalization (AUC)” value in test [2] turned out to be 1.2. The “Relative hGIPR internalization (%)” value in test [2] came out at 3%. In test [3], the EC50 was found to be 0.05 nM.

For “HADGTFTSDYSTILDKLAARDFINWLIQTKGKK([AEEA-AEEA-γGlu-C18 diacid])NDWKHNITQ-OH [Compound 24]”, the maximum response (Emax) in test [1] (setting [5]) was determined as 91%; in test [3] (setting [7]), 113%; in test [4] (setting [9]), 96%. The “Absolute hGIPR internalization (AUC)” value in test [2] (setting [6]) is recorded as 15.0. In test [2], the “Relative hGIPR internalization (%)” value turned out to be 41%. Moreover, the results for the EC50 in test [3] (setting [8]) and in test [4] were 0.05 nM and 0.398 nM, respectively.

As for “HADGTFTSDYSTILDKLAARDFINWLIQTKGKKNDWKHNITQK([AEEA-AEEA-γGlu-C18 diacid])-OH [Compound 26]”, the Emax was 112% in test [1] (setting [5]), 103% in test [3] (setting [7]) and 106% in test [4] (setting [9]). In addition, the “Absolute hGIPR internalization (AUC)” value in test [2] (setting [6]) was 16.4. Besides, in test [2] (compared to native GIP), the “GIPR internalization (in words)” value is reported as “internalization of the GIPR to a higher extent”. Further, the “Relative hGIPR internalization (%)” value in test [2] turned out to be 44%. Also, the EC50 in test [3] (cAMP, COS-7 cells, human GLP-1R, read-out: logEC50 GLP-1R (converted)) was 0.0398 nM; in test [4], 0.316 nM.

One may read the Emax as the maximal effect, on the per cent scale that the assay sets.
